From patent publication US20250128203A1, “MODIFIED REDOX-ACTIVE SORBENTS FOR ELECTROCHEMICAL CARBON DIOXIDE SEPARATION” (The Johns Hopkins University, priority 2023, published 2025)
Values joined by “and” are separate entries in the source; they are usually repeats but may differ in a detail not shown here. Equal values may be shown once. Read-outs that look alike come from different tables or passages of the source.

What was measured:
[1] = DMF, cited from earlier work; for E1/2 (1) in CO2: first half-wave potential; for E1/2 (1) in CO2 / E1/2 (2) in CO2 / E1/2 (2) in N2: vs. Fc^+/Fc; for E1/2 (1) in CO2 / E1/2 (2) in CO2: under CO2; for E1/2 (2) in CO2 / E1/2 (2) in N2: second half-wave potential; for E1/2 (2) in N2: under N2
[2] = UV-vis absorption, optical band gap; type: physicochemical; conditions: UV-vis absorption (Kubelka-Munk spectra)
Experimental: UV-vis absorption spectra were recorded on a Thermo Scientific Genesys 10S UV-vis spectrophotometer.

[3] = CO2 binding constant (KCO2) calculated from the shift of the second reduction peak in CV; conditions: for K[CO2] / logK[CO2]: DMF; for ΔEpeak(2): difference between the second reduction peak potentials (IId·−/IId2−) in CO2 and N2
Experimental: (§1) Electrochemical measurements were conducted using a BioLogic VSP potentiostat (BioLogic Science Instruments). For the cyclic voltammetry measurements, glassy carbon (Ø=3 mm) was used as the working electrode, platinum wire was used as the counter electrode, silver wire was used as the pseudo-reference electrode and ferrocene was used as the internal reference. In a standard cyclic voltammetry measurement, the molecule of interest (2.5 mM) was dissolved in anhydrous DMF with 100 mM NBu4PF6 as the supporting salt. Typical cyclic voltammograms were collected at a scan rate of […]. To study the effects of ionic species on the redox behaviour of the sorbent molecules, 100 mM LiClO4, NaClO4, KClO4, NBu4ClO4, sodium triflate (NaOTf), or sodium bis(trifluoromethanesulfonyl)imide (NaTFSI) was used as the supporting electrolyte salt.
The CO2 binding constant (KCO2) was calculated by Eq 1: […]

[4] = Cyclic voltammetry of isoindigos in DMF (half-wave redox potentials under N2 or CO2); type: physicochemical; conditions: for E1/2 in N2 (first): first half-wave potential vs. Fc^+/Fc; for E1/2 in N2 (first) / E1/2 in CO2 (second) / E1/2 in N2 (second) / E1/2 in CO2 (first or single): 2.5 mM in DMF; for E1/2 in N2 (first) / E1/2 in N2 (second): 0.1 M NBu4PF6, N2, 298 K; for E1/2 in CO2 (second) / E1/2 in N2 (second): second half-wave potential vs. Fc^+/Fc; for E1/2 in CO2 (second) / E1/2 in CO2 (first or single): 0.1 M NBu4PF6, CO2, 298 K; for E1/2 (IId/IId·−) in N2: Table 1, first electron transfer, N2, DMF
Experimental: as §1

[5] = Chronoamperometry: reaction rate constant between isoindigo radical anion and CO2; conditions: isoindigo 5 mM in DMF, 0.1 M NBu4PF6
Description: In electrochemistry, the Cottrell equation describes the current response (i) when the potential is a step function in time (t):
where i is current, n is the number of electrons transferred per molecule, A is the area of the electrode, C*0 is the bulk concentration of the redox-active isoindigo molecule, D is the diffusion coefficient, and t is time. The expected current for a diffusion limited electrochemical process following an ECE (electron transfer, chemical reaction, electron transfer) mechanism at a plane electrode under diffusion-controlled conditions is:
where n1 and n2 are the number of electrons transferred in the first and second step, respectively, and kf is the forward reaction rate constant of the chemical reaction. Here, to calculate kf after the first electron transfer, n2 and n1 are set to 1. Eq 3 then becomes:
The integrated Cottrell equation relates total charge Q with time for chronoamperometry: […]
Then, the constant k can be calculated, here k is assumed constant:
To calculate kf, the constant k is calculated using Eq 5 using potentiostatic measurements. Plugging in Eq 6, and rearranging Eq 4 gives:
The data for determining kf is shown in FIGS. 22 to 25 using 5 mM sorbent molecules in 0.1 M NBu4PF6 DMF electrolyte. The value k was determined using data under N2; kf was obtained under 1 bar 20% CO2 (0.0396 M CO2 in solution).

Row | SMILES | logKCO2 [1] | E1/2 (1) in CO2 [1] | E1/2 (2) in CO2 [1] | E1/2 (2) in N2 [1] | Optical band gap [2] | K[CO2] ([3]; 298 K) | logK[CO2] ([3]; 298 K) | ΔEpeak(2) [3] | E1/2 in N2 (first) [4] | E1/2 in N2 (second) [4] | E1/2 in CO2 (first or single) ([4]; vs. Fc^+/Fc) | further results
1 | O=C1C=C(Cl)C(=O)C(Cl)=C1 [BQ-Cl2] | 1.86 | −0.7 V | −1.59 V | −1.66 V | – | – | – | – | – | – | – | –
2 | O=C1C(Cl)=C(Cl)C(=O)c2ccccc21 [p-NQ-Cl2] | 2.73 | −0.9 V | −1.63 V | −1.75 V | – | – | – | – | – | – | – | –
3 | COC(=O)c1ccc2c(c1)NC(=O)/C2=C1/C(=O)Nc2ccc([N+](=O)[O-])cc21 [5N6MCIId, Methyl-5-nitroisoindigo-6-carboxylate] | – | – | – | – | 2.08 eV | 41500 M⁻¹ | 4.62 | 0.232 V | −0.93 V and −0.93, V | −1.40 V | −0.94, V | E1/2 in CO2 (second) [4]: −1.15 V
4 | O=C1Nc2ccccc2/C1=C1\C(=O)Nc2cc(C(=O)O)ccc21 [6CIId, Isoindigo-6-carboxylic Acid] | – | – | – | – | 2.01 eV | 750 M⁻¹ | 2.87 | 0.129 V | −1.09, V | −1.35 V | −1.06, V | E1/2 in CO2 (second) [4]: −1.18 V
5 | CC1=C(C)C(=O)C(C)=C(C)C1=O [DBQ] | 17.61 | −1.39 V | −1.39 V | −2.39 V | – | – | – | – | – | – | – | –
6 | O=C1c2ccccc2C(=O)c2cc(Cl)ccc21 [AQ-Cl] | 2.73 | −1.25 V | −1.88 V | −2 V | – | – | – | – | – | – | – | –
7 | O=C1C(Cl)=C(Cl)C(=O)C(Cl)=C1Cl [BQ-Cl4] | 1.28 | −0.48 V | −1.38 V | −1.42 V | – | – | – | – | – | – | – | –
8 | O=C1Nc2ccc(F)cc2/C1=C1\C(=O)Nc2ccc(F)cc21 [55DFIId, 5,5′-Difluoroisoindigo] | – | – | – | – | 1.97 eV | 9.13e+09 M⁻¹ | 9.96 | 0.547 V | −1.14, V | −1.69 V | −1.13 V | –
9 | O=C1Nc2ccccc2/C1=C1\C(=O)Nc2cc(Br)ccc21 [6BIId, 6-Bromoisoindigo] | – | – | – | – | 2.05 eV | 6.25e+09 M⁻¹ | 9.8 | 0.538 V | −1.21, V | −1.75 V | −1.14 V | –
10 | O=C1C=CC(=O)C=C1 [BQ] | 18.12 | −0.95 V | −0.95 V | −1.98 V | – | – | – | – | – | – | – | –
11 | CCCN1C(=O)/C(=C2/C(=O)N(CCC)c3cc(Br)ccc32)c2ccc(Br)cc21 [NNDPr66DBIId, N,N′-Dipropyl-6,6′-dibromoisoindigo] | – | – | – | – | 2.02 eV | 74800 M⁻¹ | 4.48 | 0.247 V | −1.07, V | −1.61 V | −1.08, V | kbimolecular ([5]; first CO2 binding): 3.3 M⁻¹ s⁻¹ and 3.31 M⁻¹ s⁻¹; kf (20% CO2) ([5]; forward rate constant, 20% CO2): 0.131 s⁻¹; logK[CO2] ([3]; Table 1): 4.87; E1/2 (IId/IId·−) in N2 [4]: −1.07 V vs. Fc^+/Fc; E1/2 in CO2 (second) [4]: −1.34 V
12 | CCCOc1ccc2c(c1)C(=O)c1ccccc1C2=O [AQ-O-C3H7] | 11.70 | −1.55 V | −1.55 V | −2.2 V | – | – | – | – | – | – | – | –
13 | CCCOC(=O)c1ccc2c(c1)C(=O)c1ccccc1C2=O [AQ-COO- C3H7] | 2.56 | −1.29 V | −1.89 V | −2 V | – | – | – | – | – | – | – | –
14 | O=C1Nc2ccccc2/C1=C1\C(=O)Nc2ccc(Br)cc21 [5BIId, 5-Bromoisoindigo] | – | – | – | – | 2.04 eV | 1.12e+09 M⁻¹ | 9.05 | 0.494 V | −1.19, V | −1.67 V | −1.11 V | logK[CO2] ([3]; Table 1): 9.05; E1/2 (IId/IId·−) in N2 [4]: −1.19 V vs. Fc^+/Fc; Experimental 1st half-wave potential in N2 ([4]; Table 5, vs. Fc^+/Fc): −1.19 V
15 | O=C1Nc2ccccc2/C1=C1\C(=O)Nc2ccc([N+](=O)[O-])cc21 [5NIId, 5-Nitroisoindigo] | – | – | – | – | 2.07 eV | 7.63e+08 M⁻¹ | 8.88 | 0.484 V | −1.08 V and −1.08, V | −1.57 V | −1.08 V | –
16 | O=C1Nc2cc(F)c(F)cc2/C1=C1\C(=O)Nc2cc(F)c(F)cc21 [5566TFIId, 5,5′,6,6′-Tetrafluoroisoindigo] | – | – | – | – | 2.02 eV | 2.17e+10 M⁻¹ | 10.3 | 0.570 V | −1.10, V | −1.68 V | −1.1 V | –
17 | COc1ccc2c(c1)/C(=C1\C(=O)Nc3ccc([N+](=O)[O-])cc31)C(=O)N2 [5M5NIId, 5-Methoxyl-5′-nitroisoindigo] | – | – | – | – | 1.71 eV | 4.45e+08 M⁻¹ | 8.65 | 0.470 V | −1.08 V and −1.08, V | −1.55 V | −1.08 V | –
18 | O=C1C=CC(=O)c2ccccc21 [p-NQ] | 14.74 | −1.23 V | −1.23 V | −2.06 V | – | – | – | – | – | – | – | –
19 | COC(=O)c1ccc2c(c1)NC(=O)/C2=C1/C(=O)Nc2cc(Br)ccc21 [6B6MCIId, Methyl 6-bromoisoindigo-6′-carboxylate] | – | – | – | – | 2.02 eV | 8.34e+08 M⁻¹ | 8.92 | 0.486 V | −1.05, V | −1.55 V | −1.05 V | –
20 | CC(C)(C)C1=CC(=O)C=C(C(C)(C)C)C1=O [TBQ] | 18.29 | −1.25 V | −1.25 V | −2.29 V | – | – | – | – | – | – | – | –
21 | COc1ccc2c(c1)/C(=C1\C(=O)Nc3ccc(OC)cc31)C(=O)N2 [55DMIId, 5,5′-Dimethoxylisoindigo] | – | – | – | – | 1.78 eV | 1.13e+09 M⁻¹ | 9.05 | 0.494 V | −1.29 V and −1.29, V | −1.76 V | −1.2 V | logK[CO2] ([3]; Table 1): 9.05; E1/2 (IId/IId·−) in N2 [4]: −1.29 V vs. Fc^+/Fc
22 | CCCCC(CC)CN1C(=O)/C(=C2/C(=O)N(CC(CC)CCCC)c3ccccc32)c2ccccc21 (stereo not shown) [NNDEHIId, N,N′-Di-(2-ethylhexyl)-isoindigo] | – | – | – | – | 2.00 eV | 4.19e+06 M⁻¹ | 6.62 | 0.350 V | −1.23, V | −1.80 V | −1.16, V | E1/2 in CO2 (second) [4]: −1.45 V
23 | O=C1c2ccccc2C(=O)c2ccccc21 [AQ, anthraquinone] | 13.39 | −1.4 V | −1.4 V | −2.15 V | – | – | – | – | – | – | – | logKCO2 ([1]; listed as anthraquinone): approximately 13.4
